Our source for the EC50 values is patent US7998995B2 (Exelixis Patent Company LLC, priority 2006, dated 2011).

The target of one experiment is T1, FXR (Homo sapiens, UniProt Q96RI1).
T1 sequence (Q96RI1 1-472 isoform Q96RI1-2): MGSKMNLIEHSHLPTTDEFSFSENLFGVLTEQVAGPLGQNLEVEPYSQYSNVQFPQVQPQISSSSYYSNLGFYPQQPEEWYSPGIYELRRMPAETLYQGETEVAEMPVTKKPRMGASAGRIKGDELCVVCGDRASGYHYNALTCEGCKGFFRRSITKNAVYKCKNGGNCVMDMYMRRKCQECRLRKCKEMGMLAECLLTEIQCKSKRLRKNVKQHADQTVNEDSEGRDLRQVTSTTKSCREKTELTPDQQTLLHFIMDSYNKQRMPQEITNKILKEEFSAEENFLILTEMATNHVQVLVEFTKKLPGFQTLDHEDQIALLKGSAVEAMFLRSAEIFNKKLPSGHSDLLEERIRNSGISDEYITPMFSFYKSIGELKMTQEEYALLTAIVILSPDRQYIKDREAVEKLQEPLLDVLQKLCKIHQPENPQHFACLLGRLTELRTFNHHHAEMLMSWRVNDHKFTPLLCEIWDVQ
Put plainly: Measured EC50 or IC50 for FXR (assay not given). The settings on record: IC50 or EC50 class; assay not specified. Here is the method:
(§1) Measured EC50 or IC50 for LXR, and FXR for Compounds of the Invention
(§2) LXR and FXR activities for various compounds of the invention are presented in the following table; those compounds with EC50 or IC50 values <10 μM for at least one of LXRα, LXRβ or FXR are considered to be active. In the following Table, IC50 or EC50 data is represented as follows: A<1 μM, B=1-10 μm, and C>10 μM.

The test system of the next experiment is T2, LXR.
T2 construct: fused on or other part: GST fused to the LBD in the FRET assay
Put plainly: Measured EC50 or IC50 for LXR (LXRα and/or LXRβ; assay and subtype not given). The settings on record: IC50 or EC50 class, subtype not specified. On the procedure:
as §1, §2

For `Cc1cccc(Cl)c1-n1nc(C(C)(C)O)cc1-c1ccc(-c2cccc(S(C)(=O)=O)c2)s1` [Example 952, 2-[1-(2-chloro-6-methylphenyl)-5-{5-[3-(methylsulfonyl)phenyl]-2-thienyl}-1H-pyrazol-3-yl]propan-2-ol], the figures for the EC50 on FXR and in the experiment on LXR were 1000 to 10000 nM and under 1000 nM, respectively.

Consider `CC(C)(O)c1cc(-c2ccc(-c3cccc(S(C)(=O)=O)c3)s2)n(-c2c(Cl)cccc2Cl)n1` [Example 949, 2-[1-(2,6-dichlorophenyl)-5-{5-[3-(methylsulfonyl)phenyl]-2-thienyl}-1H-pyrazol-3-yl]propan-2-ol], for which the EC50 at FXR is 1000 to 10000 nM; in the experiment with LXR it was under 1000 nM.

In the case of `O=C(O)c1ccc(-c2ccc(OCc3cc(C(F)(F)F)nn3-c3c(Cl)cccc3Cl)cc2)cc1` [Example 921, 4′-({[1-(2,6-dichlorophenyl)-3-(trifluoromethyl)-1H-pyrazol-5-yl]methyl}oxy)biphenyl-4-carboxylic acid], the figures for the EC50 on FXR and in the experiment on LXR were 1000 to 10000 nM and over 10000 nM, respectively.

With `Cc1cc(-c2cccc(S(C)(=O)=O)c2)ccc1-c1cc(C(C)(C)O)nn1-c1c(Cl)cccc1Cl` [Example 960, 2-{1-(2,6-dichlorophenyl)-5-[3-methyl-3′-(methylsulfonyl)biphenyl-4-yl]-1H-pyrazol-3-yl}propan-2-ol], the concentration giving a half-maximal response (EC50) on FXR and with LXR was under 1000 nM throughout.

In the case of `CC(C)(O)c1cc(-c2ccc(-c3cccc(S(C)(=O)=O)c3)s2)n(-c2c(Cl)cncc2Cl)n1` [Example 955, 2-[1-(3,5-dichloropyridin-4-yl)-5-{5-[3-(methylsulfonyl)phenyl]-2-thienyl}-1H-pyrazol-3-yl]propan-2-ol], the EC50 on FXR was 1000 to 10000 nM; in the experiment with LXR it was under 1000 nM.

Usually EC50 stands for the midpoint of the concentration-response curve. Higher therefore signals a less potent agent.
